From the NIST ThermoML archive (doi:10.1016/j.jct.2004.10.005)
± gives the expanded uncertainty stated by the source.

Key:
[1] = molar heat capacity at constant pressure; conditions: 101.33 kPa

SMILES: BrC12CC3CC(CC(C3)C1)C2 [1-bromotricyclo[3.3.1.1(3,7)]decane]
- Triple point temperature (Crystal 1, DTA): 391.8 ± 0.4 K
- Triple point temperature (Crystal 2, Adiabatic calorimetry): 309.9 ± 0.1 K
- Triple point temperature (Crystal 2, DTA): 309.8 ± 0.4 K
- Triple point temperature (Crystal 3, Adiabatic calorimetry): 282.2 ± 0.1 K
- Triple point temperature (Crystal 4, Adiabatic calorimetry): 31 ± 0.1 K
- molar heat capacity at constant pressure ([1]; 5 K, Crystal 4, Vacuum adiabatic calorimetry): 0.6485 ± 0.024 J/K/mol
- molar heat capacity at constant pressure ([1]; 10 K, Crystal 4, Vacuum adiabatic calorimetry): 4.755 ± 0.093 J/K/mol
- molar heat capacity at constant pressure ([1]; 15 K, Crystal 4, Vacuum adiabatic calorimetry): 11.51 ± 0.19 J/K/mol
- molar heat capacity at constant pressure ([1]; 20 K, Crystal 4, Vacuum adiabatic calorimetry): 18.36 ± 0.25 J/K/mol
- molar heat capacity at constant pressure ([1]; 25 K, Crystal 4, Vacuum adiabatic calorimetry): 24.35 ± 0.27 J/K/mol
- molar heat capacity at constant pressure ([1]; 30 K, Crystal 4, Vacuum adiabatic calorimetry): 29.52 ± 0.26 J/K/mol
- molar heat capacity at constant pressure ([1]; 31 K, Crystal 3, Vacuum adiabatic calorimetry): 30.48 ± 0.26 J/K/mol
- molar heat capacity at constant pressure ([1]; 31 K, Crystal 4, Vacuum adiabatic calorimetry): 30.48 ± 0.26 J/K/mol
- molar heat capacity at constant pressure ([1]; 35 K, Crystal 3, Vacuum adiabatic calorimetry): 33.96 ± 0.22 J/K/mol
- molar heat capacity at constant pressure ([1]; 40 K, Crystal 3, Vacuum adiabatic calorimetry): 37.77 ± 0.17 J/K/mol
- molar heat capacity at constant pressure ([1]; 45 K, Crystal 3, Vacuum adiabatic calorimetry): 41.08 ± 0.18 J/K/mol
- molar heat capacity at constant pressure ([1]; 50 K, Crystal 3, Vacuum adiabatic calorimetry): 44.09 ± 0.2 J/K/mol
- molar heat capacity at constant pressure ([1]; 60 K, Crystal 3, Vacuum adiabatic calorimetry): 49.73 ± 0.22 J/K/mol
- molar heat capacity at constant pressure ([1]; 70 K, Crystal 3, Vacuum adiabatic calorimetry): 55.13 ± 0.24 J/K/mol
- molar heat capacity at constant pressure ([1]; 80 K, Crystal 3, Vacuum adiabatic calorimetry): 60.5 ± 0.27 J/K/mol
- molar heat capacity at constant pressure ([1]; 90 K, Crystal 3, Vacuum adiabatic calorimetry): 65.87 ± 0.32 J/K/mol
- molar heat capacity at constant pressure ([1]; 100 K, Crystal 3, Vacuum adiabatic calorimetry): 71.25 ± 0.34 J/K/mol
- molar heat capacity at constant pressure ([1]; 110 K, Crystal 3, Vacuum adiabatic calorimetry): 76.65 ± 0.37 J/K/mol
- molar heat capacity at constant pressure ([1]; 120 K, Crystal 3, Vacuum adiabatic calorimetry): 82.11 ± 0.39 J/K/mol
- molar heat capacity at constant pressure ([1]; 130 K, Crystal 3, Vacuum adiabatic calorimetry): 87.63 ± 0.4 J/K/mol
- molar heat capacity at constant pressure ([1]; 140 K, Crystal 3, Vacuum adiabatic calorimetry): 93.24 ± 0.42 J/K/mol
- molar heat capacity at constant pressure ([1]; 150 K, Crystal 3, Vacuum adiabatic calorimetry): 99.03 ± 0.45 J/K/mol
- molar heat capacity at constant pressure ([1]; 160 K, Crystal 3, Vacuum adiabatic calorimetry): 105 ± 0.5 J/K/mol
- molar heat capacity at constant pressure ([1]; 170 K, Crystal 3, Vacuum adiabatic calorimetry): 111.2 ± 0.5 J/K/mol
- molar heat capacity at constant pressure ([1]; 180 K, Crystal 3, Vacuum adiabatic calorimetry): 117.7 ± 0.6 J/K/mol
- molar heat capacity at constant pressure ([1]; 190 K, Crystal 3, Vacuum adiabatic calorimetry): 124.4 ± 0.6 J/K/mol
- molar heat capacity at constant pressure ([1]; 200 K, Crystal 3, Vacuum adiabatic calorimetry): 131.5 ± 0.6 J/K/mol
- molar heat capacity at constant pressure ([1]; 210 K, Crystal 3, Vacuum adiabatic calorimetry): 138.9 ± 0.6 J/K/mol
- molar heat capacity at constant pressure ([1]; 220 K, Crystal 3, Vacuum adiabatic calorimetry): 146.5 ± 0.7 J/K/mol
- molar heat capacity at constant pressure ([1]; 230 K, Crystal 3, Vacuum adiabatic calorimetry): 154.9 ± 0.7 J/K/mol
- molar heat capacity at constant pressure ([1]; 240 K, Crystal 3, Vacuum adiabatic calorimetry): 164.8 ± 0.7 J/K/mol
- molar heat capacity at constant pressure ([1]; 250 K, Crystal 3, Vacuum adiabatic calorimetry): 175.5 ± 0.8 J/K/mol
- molar heat capacity at constant pressure ([1]; 260 K, Crystal 3, Vacuum adiabatic calorimetry): 185.9 ± 0.8 J/K/mol
- molar heat capacity at constant pressure ([1]; 270 K, Crystal 3, Vacuum adiabatic calorimetry): 195.4 ± 0.8 J/K/mol
- molar heat capacity at constant pressure ([1]; 273.15 K, Crystal 3, Vacuum adiabatic calorimetry): 198.1 ± 0.9 J/K/mol
- molar heat capacity at constant pressure ([1]; 280 K, Crystal 3, Vacuum adiabatic calorimetry): 203.6 ± 0.9 J/K/mol
- molar heat capacity at constant pressure ([1]; 282.2 K, Crystal 2, Vacuum adiabatic calorimetry): 205.2 ± 0.9 J/K/mol
- molar heat capacity at constant pressure ([1]; 282.2 K, Crystal 3, Vacuum adiabatic calorimetry): 205.2 ± 0.9 J/K/mol
- molar heat capacity at constant pressure ([1]; 290 K, Crystal 2, Vacuum adiabatic calorimetry): 210.6 ± 0.9 J/K/mol
- molar heat capacity at constant pressure ([1]; 298.15 K, Crystal 2, Vacuum adiabatic calorimetry): 215.4 ± 0.9 J/K/mol
- molar heat capacity at constant pressure ([1]; 300 K, Crystal 2, Vacuum adiabatic calorimetry): 216.5 ± 0.9 J/K/mol
- molar heat capacity at constant pressure ([1]; 309.9 K, Crystal 1, Vacuum adiabatic calorimetry): 246.3 ± 1.1 J/K/mol
- molar heat capacity at constant pressure ([1]; 309.9 K, Crystal 2, Vacuum adiabatic calorimetry): 221.9 ± 0.9 J/K/mol
- molar heat capacity at constant pressure ([1]; 310 K, Crystal 1, Vacuum adiabatic calorimetry): 246.5 ± 1.1 J/K/mol
- molar heat capacity at constant pressure ([1]; 320 K, Crystal 1, Vacuum adiabatic calorimetry): 257.5 ± 1.1 J/K/mol
- molar heat capacity at constant pressure ([1]; 330 K, Crystal 1, Large sample (1 g) DSC): 279.7 ± 6.9 J/K/mol
- molar heat capacity at constant pressure ([1]; 340 K, Crystal 1, Large sample (1 g) DSC): 297 ± 7.2 J/K/mol
- molar heat capacity at constant pressure ([1]; 350 K, Crystal 1, Large sample (1 g) DSC): 302.1 ± 7.4 J/K/mol
- molar heat capacity at constant pressure ([1]; 360 K, Crystal 1, Large sample (1 g) DSC): 305.2 ± 7.5 J/K/mol
- molar heat capacity at constant pressure ([1]; 370 K, Crystal 1, Large sample (1 g) DSC): 305.7 ± 7.5 J/K/mol
- molar heat capacity at constant pressure ([1]; 380 K, Crystal 1, Large sample (1 g) DSC): 305.9 ± 7.5 J/K/mol
- molar heat capacity at constant pressure ([1]; 390 K, Crystal 1, Large sample (1 g) DSC): 306.1 ± 7.5 J/K/mol
- molar heat capacity at constant pressure ([1]; 391.8 K, Crystal 1, Large sample (1 g) DSC): 306.1 ± 7.5 J/K/mol
- molar heat capacity at constant pressure ([1]; 391.8 K, Liquid, Large sample (1 g) DSC): 311.4 ± 7.6 J/K/mol
- molar heat capacity at constant pressure ([1]; 400 K, Liquid, Large sample (1 g) DSC): 311.6 ± 7.6 J/K/mol
- molar heat capacity at constant pressure ([1]; 410 K, Liquid, Large sample (1 g) DSC): 312 ± 7.6 J/K/mol
- molar heat capacity at constant pressure ([1]; 420 K, Liquid, Large sample (1 g) DSC): 312.3 ± 7.6 J/K/mol
- molar heat capacity at constant pressure ([1]; 430 K, Liquid, Large sample (1 g) DSC): 312.7 ± 7.7 J/K/mol
